In brackets after ≈: the same amount, converted by molar mass. Like-named read-outs stand apart in the source and are kept apart here.
How the values were obtained:
[1] = system: engineered E. coli strain expressing KPC-2^V240G; experiment: microbe, parasite or virus in culture; format: cell-based; conditions: Escherichia coli, BLIs at fixed 4 μg/mL
[2] = system: engineered E. coli strain expressing KPC-3^V240G; experiment: microbe, parasite or virus in culture; format: cell-based; conditions: Escherichia coli, BLIs at fixed 4 μg/mL
[3] = system: engineered E. coli strain expressing KPC-2 wt; experiment: microbe, parasite or virus in culture; format: cell-based; conditions: Escherichia coli; KPC-2 wt strain; BLIs at fixed 4 μg/mL
[4] = system: E. coli strains expressing KPC-2^D179Y or KPC-2^D179Y/T243M; experiment: microbe, parasite or virus in culture; format: cell-based
[5] = system: engineered E. coli strain expressing KPC-3 wt; experiment: microbe, parasite or virus in culture; format: cell-based; conditions: Escherichia coli; KPC-3 wt strain; BLIs at fixed 4 μg/mL
[6] = system: engineered E. coli strain expressing KPC-3^D179Y/T243M; experiment: microbe, parasite or virus in culture; format: cell-based; conditions: Escherichia coli, BLIs at fixed 4 μg/mL
[7] = system: engineered E. coli strain expressing KPC-3^D179Y; experiment: microbe, parasite or virus in culture; format: cell-based; conditions: Escherichia coli, BLIs at fixed 4 μg/mL
[8] = system: engineered E. coli strain expressing KPC-2^D179Y/T243M; experiment: microbe, parasite or virus in culture; format: cell-based; conditions: Escherichia coli, BLIs at fixed 4 μg/mL
[9] = system: E. coli control strain lacking a β-lactamase; experiment: microbe, parasite or virus in culture; format: cell-based; conditions: Escherichia coli, no KPC expressed, BLIs at fixed 4 μg/mL
[10] = system: engineered E. coli strain expressing KPC-2^D179Y; experiment: microbe, parasite or virus in culture; format: cell-based; conditions: Escherichia coli, BLIs at fixed 4 μg/mL
KPC-3^D179Y/T243M = KPC-3^D179Y/T243M (Klebsiella pneumoniae, UniProt Q9F663, D178Y/H272Y/T242M); experiment: Inhibition kinetics (CENTA hydrolysis, jump dilution), KPC-3 D179Y/T243M; format: biochemical; conditions: for Kd: estimated from ratio koff / k2/K; for koff: jump dilution
Procedure: (§1) Measurements to determine kinetic parameters for hydrolysis, and kinetic parameters for inhibition were performed at ambient temperature in PBS (pH 7.4) containing 0.1 mg/mL bovine serum albumin, using a PowerWaveXS plate reader (BioTek).
(§2) Second-order rate constants (k2/K) denoting the inactivation efficiency of BLIs were determined by continuously measuring CENTA (100 µM) hydrolysis ([28]) in the presence of various concentrations of BLI. Progress curves were fit to equation 3 using GraphPad Prism, where Ai and A0 are the measured and basal absorbance, vi and vs are initial and final velocity, and t is time in seconds. k2/K was derived with equation 4. Koff was determined by the jump dilution method ([24]). Kd was estimated from the ratio between koff and k2/K.
(§3) (3) Ai=A0+vst(vi-vs)[1-e^-(kobs)t/kobs]
(§4) (4) kobs=k-2+(k2/KI)[I]/1+[S]/KM

KPC-3^D179Y = KPC-3^D179Y (Klebsiella pneumoniae, UniProt Q9F663, D178Y/H272Y); experiment: Inhibition kinetics (CENTA hydrolysis, jump dilution), KPC-3 D179Y; format: biochemical; conditions: for Kd: estimated from ratio koff / k2/K; for koff: jump dilution
Procedure: as §1, §2, §3, §4

[11] = system: KPC-3^D179Y and KPC-3^D179Y/T243M; experiment: Inhibition kinetics, summary for KPC-3 D179Y variants; format: biochemical, Klebsiella pneumoniae; conditions: range over TAN, LED, AVI and both KPC-3 D179Y variants
Procedure: as §1, §2, §3, §4

KPC-3^V240G = KPC-3^V240G (Klebsiella pneumoniae, UniProt Q9F663, H272Y/V239G); experiment: Inhibition kinetics (CENTA hydrolysis, jump dilution), KPC-3 V240G; format: biochemical; conditions: for Kd: estimated from ratio koff / k2/K; for koff: jump dilution
Procedure: as §1, §2, §3, §4

KPC-3 WT [12] = target: T1, KPC-3 WT (Klebsiella pneumoniae, UniProt Q9F663, H272Y); experiment: Inhibition kinetics (CENTA hydrolysis, jump dilution), KPC-3 wt; format: biochemical; conditions: for Kd: estimated from ratio koff / k2/K; for koff: jump dilution
Procedure: as §1, §2, §3, §4

KPC-2^D179Y/T243M = KPC-2^D179Y/T243M (Klebsiella pneumoniae, UniProt Q9F663, D178Y/T242M); experiment: Inhibition kinetics (CENTA hydrolysis, jump dilution), KPC-2 D179Y/T243M; format: biochemical; conditions: for Kd: estimated from ratio koff / k2/K; for koff: jump dilution
Procedure: as §1, §2, §3, §4

KPC-2^V240G = KPC-2^V240G (Klebsiella pneumoniae, UniProt Q9F663, V239G); experiment: Inhibition kinetics (CENTA hydrolysis, jump dilution), KPC-2 V240G; format: biochemical; conditions: for Kd: estimated from ratio koff / k2/K; for koff: jump dilution
Procedure: as §1, §2, §3, §4

KPC-2 WT [13] = target: T2, KPC-2 WT (Klebsiella pneumoniae, UniProt Q9F663); conditions: previously reported; cited from earlier work
KPC-2^D179Y = KPC-2^D179Y (Klebsiella pneumoniae, UniProt Q9F663, D178Y); experiment: Inhibition kinetics (CENTA hydrolysis, jump dilution), KPC-2 D179Y; format: biochemical; conditions: for Kd: estimated from ratio koff / k2/K; for koff: jump dilution
Procedure: as §1, §2, §3, §4

KPC-2 WT [14] = target: T2, KPC-2 WT; experiment: biochemical; conditions: inhibition of CENTA hydrolysis, read-out: Apparent affinity Ki^app
KPC-3 WT [15] = target: T1, KPC-3 WT; experiment: biochemical; conditions: inhibition of CENTA hydrolysis, read-out: Apparent affinity Ki^app
KPC-2 WT [16] = target: T2, KPC-2 WT; format: biochemical
Procedure: as §1, §2, §3, §4

[17] = pH 7.4, inactivation efficiency, read-out: k2/K

`C[C@@H](O)[C@H]1C(=O)N2C(C(=O)O)=C(S[C@@H]3CN[C@H](C(=O)N(C)C)C3)[C@H](C)[C@H]12` [MEM, meropenem] gave an MIC [1] of 8 µg/mL (≈ 20.9 µM), an MIC [2] of 16 µg/mL (≈ 41.7 µM) and an MIC [3] of 32 µg/mL (≈ 83.4 µM). The “MIC increase relative to the control strain” value [4] was “eightfold”, the MIC [5] was 16 µg/mL (≈ 41.7 µM) and the MIC [6] was 0.12 µg/mL (≈ 0.313 µM). It also gave an MIC [7] of 0.12 µg/mL (≈ 0.313 µM), an MIC [8] of 0.25 µg/mL (≈ 0.652 µM) and an MIC [9] of 0.03 µg/mL (≈ 0.0782 µM). The MIC [10] was 0.25 µg/mL (≈ 0.652 µM).

`CCC(=O)N[C@H]1Cc2cccc(C(=O)O)c2OB1O` [LED, ledaborbactam] gave a t1/2 (KPC-3^D179Y/T243M) of 18.1 ± 2.2 min, a Kd (KPC-3^D179Y/T243M) of 620 nM and a koff (KPC-3^D179Y/T243M; read-out: koff) of 0.00065 s⁻¹. It also gave a kinact/KI (KPC-3^D179Y/T243M; [17]) of 1000 M⁻¹ s⁻¹, a t1/2 (KPC-3^D179Y) of 17.2 ± 0.3 min and a Kd (KPC-3^D179Y) of 1250 nM. For the same molecule, the koff (KPC-3^D179Y; read-out: koff) was 0.00067 s⁻¹, the kinact/KI (KPC-3^D179Y; [17]) was 540 M⁻¹ s⁻¹ and the “reduced inactivation efficiencies relative to KPC-3^wt” value [11] was 2–14 fold. It also gave a t1/2 (KPC-3^V240G) of 19.3 ± 0.4 min, a Kd (KPC-3^V240G) of 46 nM and a koff (KPC-3^V240G; read-out: koff) of 0.0006 s⁻¹. For the same molecule, the kinact/KI (KPC-3^V240G; [17]) was 13000 M⁻¹ s⁻¹, the t1/2 (KPC-3 WT [12]) was 19.6 ± 0.2 min and the Kd (KPC-3 WT [12]) was 220 nM. It also gave a koff (KPC-3 WT [12]; read-out: koff) of 0.00059 s⁻¹, a kinact/KI (KPC-3 WT [12]; [17]) of 2700 M⁻¹ s⁻¹ and a t1/2 (KPC-2^D179Y/T243M; KPC-2 D179Y/T243M) of 18.6 ± 2.7 min. It also gave a Kd (KPC-2^D179Y/T243M; KPC-2 D179Y/T243M) of 1500 nM, a koff (KPC-2^D179Y/T243M; KPC-2 D179Y/T243M, read-out: koff) of 0.00063 s⁻¹ and a kinact/KI (KPC-2^D179Y/T243M; pH 7.4, inactivation efficiency, KPC-2 D179Y/T243M, read-out: k2/K) of 430 M⁻¹ s⁻¹. The t1/2 (KPC-2^V240G) was 32 ± 1 min, the Kd (KPC-2^V240G) was 12 nM and the koff (KPC-2^V240G; read-out: koff) was 0.00037 s⁻¹. The kinact/KI (KPC-2^V240G; [17]) was 31000 M⁻¹ s⁻¹, the Kd (KPC-2 WT [13]) was 9 nM and the k2/K (KPC-2 WT [13]) was “(2.9 ± 0.07) × 10^4 M^−1⋅s^−1”. The koff (KPC-2 WT [13]) was “(2.5 ± 0.1) × 10^−4 s^−1”, the t1/2 (KPC-2^D179Y; KPC-2 D179Y) was 16.7 ± 0.5 min and the Kd (KPC-2^D179Y; KPC-2 D179Y) was 1300 nM. For the same molecule, the koff (KPC-2^D179Y; KPC-2 D179Y, read-out: koff) was 0.00069 s⁻¹ and the kinact/KI (KPC-2^D179Y; pH 7.4, inactivation efficiency, KPC-2 D179Y, read-out: k2/K) was 520 M⁻¹ s⁻¹.

With `Nc1nc(/C(=C/CC(=O)O)C(=O)N[C@@H]2C(=O)N3C(C(=O)O)=CCS[C@H]23)cs1` [CTB, ceftibuten] the MIC [1] was 64 µg/mL (≈ 156 µM), the MIC [2] was 32 µg/mL (≈ 78 µM) and the MIC [3] was 16 µg/mL (≈ 39 µM). It also gave an MIC [5] of 32 µg/mL (≈ 78 µM), an MIC [6] of 16 µg/mL (≈ 39 µM) and a Ki (KPC-2 WT [14]) of 159 ± 10 µM. For the same molecule, the MIC [7] was 32 µg/mL (≈ 78 µM), the MIC [8] was 16 µg/mL (≈ 39 µM) and the Ki (KPC-3 WT [15]) was 368 ± 26 µM. For the same molecule, the MIC [9] was 1 µg/mL (≈ 2.44 µM) and the MIC [10] was 16 µg/mL (≈ 39 µM).

With `NCCN[C@H]1CC[C@H](CC(=O)N[C@H]2Cc3cccc(C(=O)O)c3OB2O)CC1` [TAN, taniborbactam] the t1/2 (KPC-3^D179Y/T243M) was 14.6 ± 5 min, the Kd (KPC-3^D179Y/T243M) was 193 nM and the k2/K (KPC-3^D179Y/T243M; inactivation efficiency) was “(4.4 ± 0.7) × 10^3 M^−1⋅s^−1”. The koff (KPC-3^D179Y/T243M) was “(8.5 ± 2.5) × 10^−4 s^−1”, the t1/2 (KPC-3^D179Y) was 14.3 ± 1.2 min and the Kd (KPC-3^D179Y) was 290 nM. The k2/K (KPC-3^D179Y; inactivation efficiency) was “(2.8 ± 0.2) × 10^3 M^−1⋅s^−1”, the koff (KPC-3^D179Y) was “(8.1 ± 0.7) × 10^−4 s^−1” and the “reduced inactivation efficiencies relative to KPC-3^wt” value [11] was 2–14 fold. For the same molecule, the t1/2 (KPC-2 WT [16]) was 104 ± 2.3 min, the Kd (KPC-2 WT [16]; estimated from ratio koff / k2/K) was 11 nM and the k2/K (KPC-2 WT [16]; inactivation efficiency, CENTA 100 µM) was “(0.9 ± 0.02) × 10^4 M^−1⋅s^−1”. For the same molecule, the koff (KPC-2 WT [16]; jump dilution) was “(1.0 ± 0.04) × 10^−4 s^−1”, the t1/2 (KPC-3^V240G) was 14.4 ± 0.7 min and the Kd (KPC-3^V240G) was 18 nM. For the same molecule, the k2/K (KPC-3^V240G; inactivation efficiency) was “(4.4 ± 0.9) × 10^4 M^−1⋅s^−1”, the koff (KPC-3^V240G) was “(8.0 ± 0.4) × 10^−4 s^−1” and the t1/2 (KPC-3 WT [12]) was 34 ± 4 min. For the same molecule, the Kd (KPC-3 WT [12]) was 9 nM, the k2/K (KPC-3 WT [12]; inactivation efficiency) was “(3.9 ± 0.4) × 10^4 M^−1⋅s^−1” and the koff (KPC-3 WT [12]) was “(3.5 ± 0.4) × 10^−4 s^−1”. For the same molecule, the t1/2 (KPC-2^D179Y/T243M; KPC-2 D179Y/T243M) was 222.3 ± 13.7 min, the Kd (KPC-2^D179Y/T243M; KPC-2 D179Y/T243M) was 3400 nM and the koff (KPC-2^D179Y/T243M; KPC-2 D179Y/T243M) was “(5.2 ± 0.3) × 10^−5 s^−1”. The “reduction in k2/K” value (KPC-2^D179Y/T243M; KPC-2^D179Y/T243M relative to KPC-2 wt) was roughly 600 fold, the k2/K (KPC-2^D179Y/T243M; inactivation efficiency, KPC-2 D179Y/T243M) was 15.2 ± 0.1 M^−1⋅s^−1 and the t1/2 (KPC-2^V240G) was 106 ± 2.3 min. For the same molecule, the Kd (KPC-2^V240G) was 55 nM, the k2/K (KPC-2^V240G; inactivation efficiency) was “(0.2 ± 0.02) × 10^4 M^−1⋅s^−1” and the koff (KPC-2^V240G) was “(1.1 ± 0.03) × 10^−4 s^−1”. For the same molecule, the t1/2 (KPC-2^D179Y; KPC-2 D179Y) was 231 ± 19.4 min, the Kd (KPC-2^D179Y; KPC-2 D179Y) was 2900 nM and the koff (KPC-2^D179Y; KPC-2 D179Y) was “(5.0 ± 0.4) × 10^−5 s^−1”. The “reduction in k2/K” value (KPC-2^D179Y; KPC-2^D179Y relative to KPC-2 wt) was “roughly 500 fold” and the k2/K (KPC-2^D179Y; inactivation efficiency, KPC-2 D179Y) was 17 ± 0.7 M^−1⋅s^−1.

From publication PMC11881561 (Antimicrobial Agents and Chemotherapy, 2025)
